Laboratory results reported in patent US20040038369A1, “Airway-specific trypsin-like enzymes and method of using the same” (priority 2000, published 2004).
Structures can show the parent of a compound that is named as a salt.

Legend:
recombinant AST = biological target: T1, recombinant AST (Homo sapiens, UniProt O60235); experiment: AST-inhibiting activity of compound; format: biochemical; details: substrate Boc-Phe-Ser-Arg-MCA, 24° C., 6 minutes
T1 construct: 232 amino acids from Ile at the 187th position to Ile at the 418th position; made in house; host or cells: insect cells (Tn-5), recombinant baculovirus
Experimental: 0.05 mL of a 50 mM Tris-HCl buffer solution (pH 8.6) containing 2 ng/mL of the recombinant AST and 0.01% of Tween 20 was mixed with 2 μL of a DMSO solution containing nafamostat mesylate or gabexate mesylate as an evaluation target compound in various concentrations, and with 0.05 mL of a 50 mM Tris-HCl buffer solution (pH 8.6) containing 30 μM of a trypsin synthesis substrate: Boc-Phe-Ser-Arg-MCA, and incubated at 24° C. for 6 minutes. The quantities of the produced AMC were assayed by a fluorometry (fluorescent light: 460 nm, exciting light: 380 nm) with the passage of time, and the enzymatic activity-inhibiting ability of the compound was evaluated.

BEAS-2B = experiment: Calcium influx in airway epithelial cell strain BEAS-2B; format: cell-based; details: AST 2 units/mL; trypsin 10 to 100 units/mL; SFLLRNamide 100 μM
Experimental: The Ca^2+ influx due to the AST was examined with respect to an airway epithelial cell strain BEAS-2B. The confluent cells adhered to six 10 cm dishes were used. The cells were peeled with a 10 mM EDTA/HEPES-Tyrode buffer solution for 10 minutes, recovered by a centrifugal treatment at 1,500 rpm at room temperature for 5 minutes, and then resuspended in 10 mL of HEPES-Tyrode buffer solution-Ca^2+ (−) pH 7.4. The recovered cells (about 1.1×10^7 cells) were suspended in 11 mL of HEPES-Tyrode buffer solution (1 μg/mL, containing Fura2-AM) to load the Fura2-AM at 37° C. for 30 minutes. The cells were recovered by a centrifugal treatment at 1,500 rpm at room temperature for 5 minutes, twice washed with HEPES-Tyrode buffer solution-Ca^2+ (−) pH 7.4, and then resuspended in 11 mL of HEPES-Tyrode buffer solution-Ca^2+ (−) pH 7.4. The cell suspension was mixed with […] of 1M CaCl2 to give a final concentration of 1 mM CaCl2, and then incubated in a shaded state at room temperature for 5 minutes. The prepared Fura2-AM-loaded infected cells were dispensed into a 96 well plate in a volume of 100 μL/well, further subjected to the dispensation of HEPES-Tyrode buffer solution-Ca^2+ (+) pH 7.4 in a volume of 80 μL/well, and then assayed with Fluorescence Drug Screening System (Hamamatsu Photonics Co.). […]

PAR-2 = biological target: T2, PAR-2 (Homo sapiens, UniProt P55085); experiment: Calcium influx in PAR-2-expressing insect cells; format: cell-based; details: AST 2 units/mL; trypsin, thrombin 0.1 to 10 units/mL; SFLLRNamide, SLIGRL 10 to 100 μM
T2 construct: expressed in transfected cells; host or cells: Sf9 insect cells infected with recombinant baculovirus VL-PAR (pVL1393)
T2 sequence (P55085 26-397): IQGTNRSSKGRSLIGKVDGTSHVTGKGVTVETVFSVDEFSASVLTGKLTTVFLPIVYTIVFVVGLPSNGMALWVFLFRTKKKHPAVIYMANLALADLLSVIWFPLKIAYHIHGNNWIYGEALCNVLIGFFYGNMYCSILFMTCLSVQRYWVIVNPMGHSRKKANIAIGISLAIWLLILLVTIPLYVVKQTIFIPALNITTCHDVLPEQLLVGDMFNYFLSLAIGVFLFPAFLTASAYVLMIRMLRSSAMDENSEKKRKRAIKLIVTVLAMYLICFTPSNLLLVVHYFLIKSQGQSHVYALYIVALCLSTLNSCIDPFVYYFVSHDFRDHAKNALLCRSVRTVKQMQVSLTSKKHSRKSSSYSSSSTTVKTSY
Experimental: The above-obtained recombinant baculovirus VL-PAR for expressing the PAR was used to infect 1.0×10^7 Sf9 cells sowed on a 75 cm^2 flask at an MOI=2, and was then left and stationally cultured at 27° C. for 40 hours. After the culture, the infected cells were recovered and then subjected to a calcium influx experiment to-confirm the function of the PAR.
The recovered infected cells (about 5×10^6 cells) were once washed with HEPES-Tyrode buffer solution-Ca^2+ (−) pH 7.4, and then suspended in 5 mL of HEPES-Tyrode buffer solution (containing Fura2-AM, 1 μg/mL) to load the Fura2-AM on the cells at 27° C. for 30 minutes. The suspension was centrifuged at 800 rpm at room temperature for 5 minutes to recover the cells. The cells were twice washed with HEPES-Tyrode buffer solution-Ca^2+ (−) pH 7.4 and then resuspended in 5 mL of HEPES-Tyrode buffer solution-Ca^2+ (−) pH 7.4. The cell suspension was mixed with 5 μL of 1M CaCl2 to give a final concentration of 1 mM CaCl2, and then incubated in a shaded state at room temperature for 5 minutes. The prepared Fura2-AM-loaded infected cells were dispensed into a 96 well plate in a volume of 100 μL/well, further subjected to the dispensation of HEPES-Tyrode buffer solution-C^2+ (+) pH 7.4 in a volume of 80 μL/well, and then assayed with a Fluorescence Drug Screening System (made by Hamamatsu Photonics Co.). Namely, [intensity of 500 nm fluorescent light due to 340 nm exciting light]/[intensity of 500 nm fluorescent light due to 380 nm exciting light] (reflecting the concentration of calcium in the cells) was assayed.

[1] = test system: normal human airway epithelial cells; experiment: Calcium influx in normal human airway epithelial cells; format: cell-based; details: AST 2 units/mL; trypsin 10 to 100 units/mL; SFLLRNamide 100 μM
Experimental: The Ca^2+ influx due to the AST was examined with confluent normal epithelial cells adhered to three 10 cm dishes (purchased from BioWhittaker Corp.). The cells were peeled with a 10 mM EDTA/HEPES-Tyrode buffer solution for 10 minutes, recovered by a centrifugal treatment at 800 rpm at room temperature for 5 minutes, and then resuspended in 5 mL of HEPES-Tyrode buffer solution-Ca^2+ (−) pH 7.4. The recovered cells (about 1.2×10^6 cells) were suspended in 5 mL of HEPES-Tyrode buffer solution (1 μg/mL, containing Fura2-AM) to load the Fura2-AM to the cells at 37° C. for one hour. The cells were recovered by a centrifugal treatment at 800 rpm at room temperature for 5 minutes, twice washed with HEPES-Tyrode buffer solution-Ca^2+ (−) pH 7.4, and then resuspended in […] of HEPES-Tyrode buffer solution-Ca^2+ (−) pH 7.4. The cell suspension was mixed with 5 μL of 1M CaCl2 to give a final concentration of 1 mM CaCl2, and then incubated in a shaded state at room temperature for 5 minutes. The prepared Fura2-AM-loaded infected cells were dispensed into a 96 well plate in a volume of 100 μL/well, further subjected to the dispensation of HEPES-Tyrode buffer solution-Ca^2+ (+) pH 7.4 in a volume of 80 μL/well, and then assayed with Fluorescence Drug Screening System (Hamamatsu Photonics Co.). […]

T1 sequence (O60235 187-418): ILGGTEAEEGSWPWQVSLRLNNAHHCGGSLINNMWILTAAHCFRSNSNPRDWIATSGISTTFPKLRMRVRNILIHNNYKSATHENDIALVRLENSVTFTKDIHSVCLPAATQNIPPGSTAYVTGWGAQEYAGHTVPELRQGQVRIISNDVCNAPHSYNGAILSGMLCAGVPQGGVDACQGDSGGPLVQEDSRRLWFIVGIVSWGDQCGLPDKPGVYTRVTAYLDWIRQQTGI
T1 sequence (O60235 162-186 partner limits assumed): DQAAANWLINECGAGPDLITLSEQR

| Compound | IC50 (recombinant AST) [nM] | Ca2+ influx (BEAS-2B) | Ca2+ influx (PAR-2) | Ca2+ influx [1] |
| --- | --- | --- | --- | --- |
| N=C(N)c1ccc2cc(OC(=O)c3ccc(N=C(N)N)cc3)ccc2c1 [Nafamostat mesylate, nafamostat mesylate] | 230 | – | – | – |
| SFLLRNamide [reference compound] | – | observed | observed | observed |
| gabexate mesylate | 140 | – | – | – |
